# Source: patent US10308654B2, “Preparation and use of kinase inhibitor” (CHANGZHOU LONGTHERA PHARMACEUTICALS INC, priority 2015, dated 2019)
# Assays:
# [1] = molecular target: CDK4/CyclinD1 (Homo sapiens (Human), UniProt P11802); assay: CDK kinase activity assay (LANCE TR-FRET, ULight-4E-BP1 substrate); type: biochemical; settings: CDK4/CyclinD1, 60 minutes incubation
# Experimental: (§1) The CDK kinase used in this experiment: CDK4/CyclinD1 (invitrogen, Item No: PV4400); CDK6/CyclinD1 (invitrogen, Item No: PV4401); CDK1/CyclinB (invitrogen, Item No: PV3292).
# (§2) Reagents used: Substrate is ULight-4E-BP1 (PerkinElmer, Item No: TRF0128); antibody is Eu-labeledanti-phospho-eIF4E-bindingprotein1 (Thr37/46) (Perkin-Elmer, Item No: TRF0216).
# (§3) The test compound was dissolved in dimethyl sulfoxide and the solution was diluted to each concentration gradient with a buffer (50 mM HEPES, 10 mM MgCl2, 1 mM EGTA, 2 mM DTT and 0.01% Tween20) according to the test needs, the concentration of dimethyl sulfoxide was 4%. The buffer was then used to dilute ATP and the substrate ULight-4E-BP1 to prepare the mixture of 800 μM ATP and 200 nM substrate for further use. 2.5 μL of mixture of substrate and ATP or 2.5 μL of substrate was added to the wells, and then 2.5 μL of compound or 4% buffer of dimethyl sulfoxide was added, finally 5 μL of enzyme (final concentration was 0.66 μg/mL) was added, incubated avoiding light at room temperature for 60 minutes. 5 μL of EDTA stop buffer (final concentration was […]) diluted with 1×detectionbuffer (LANCEDetectionBuffer, 10×, PerkinElmer, CR97-100) was added to each well, and then 5 μL of antibody (final concentration was 2 nM) diluted with 1×detectionbuffer was added, incubated avoiding light at room temperature for 60 minutes. Perkin Elmer EnVision® TRFRETmode (Excitation wavelength: 320 nm, emission wavelength: 615 nm and 665 nm) was used to measure plates.
# (§4) The inhibition rate of the sample was determined by the following formula: […]
# (§5) IC50 values were calculated using GraphPadPrism software.
# [2] = tested on: Colo205 cells; assay: Proliferation inhibitory activity against human colon cancer cell line Colo205 (CCK8); type: cell-based; settings: COLO 205, 96 hours
# Experimental: In vitro cell assay described below could determine the proliferation inhibitory activity against human colon cancer cell line of the test compounds, and their activities could be represented by IC50 value.
# Colo205 cells (Chinese Academy of Sciences typical culture storage committee cell bank) were inoculated in 96-well culture plate with a suitable cell concentration of 2000 cells per hole, 140 μL of medium per well, then incubated in a carbon dioxide incubator at 37° C. overnight. 10 μL of different concentrations of the test compounds were added and reacted for 96 hours, and then the solvent control group (negative control) was set. The proliferation inhibitory activities against tumor cells of the test compounds were tested by CCK8 (CellCounting Kit-8, Item No: CK04, purchased from Tongren Chemical) method after 96 hours. The full-wavelength microplate reader SpectraMax190 was used for reading, the measurement wavelength was 450 nm.
# as §4
# IC50 value was calculated by four parameter regression using microplate reader with random software.
# [3] = molecular target: CDK1/CyclinB (Homo sapiens (Human), UniProt P06493); assay: CDK kinase activity assay (LANCE TR-FRET, ULight-4E-BP1 substrate); type: biochemical; settings: 60 minutes incubation
# Experimental: as §1, §2, §3, §4, §5
# Sequence of CDK1/CyclinB (P06493 whole entry): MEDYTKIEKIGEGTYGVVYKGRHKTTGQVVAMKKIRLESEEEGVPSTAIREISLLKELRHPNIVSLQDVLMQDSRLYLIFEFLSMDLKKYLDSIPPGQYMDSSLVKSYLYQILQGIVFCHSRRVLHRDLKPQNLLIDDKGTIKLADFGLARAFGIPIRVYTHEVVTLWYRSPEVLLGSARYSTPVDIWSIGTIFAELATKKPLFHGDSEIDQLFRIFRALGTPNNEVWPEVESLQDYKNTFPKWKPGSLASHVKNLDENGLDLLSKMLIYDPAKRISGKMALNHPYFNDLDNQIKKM
# Sequence of CDK1/CyclinB (P14635 whole entry partner): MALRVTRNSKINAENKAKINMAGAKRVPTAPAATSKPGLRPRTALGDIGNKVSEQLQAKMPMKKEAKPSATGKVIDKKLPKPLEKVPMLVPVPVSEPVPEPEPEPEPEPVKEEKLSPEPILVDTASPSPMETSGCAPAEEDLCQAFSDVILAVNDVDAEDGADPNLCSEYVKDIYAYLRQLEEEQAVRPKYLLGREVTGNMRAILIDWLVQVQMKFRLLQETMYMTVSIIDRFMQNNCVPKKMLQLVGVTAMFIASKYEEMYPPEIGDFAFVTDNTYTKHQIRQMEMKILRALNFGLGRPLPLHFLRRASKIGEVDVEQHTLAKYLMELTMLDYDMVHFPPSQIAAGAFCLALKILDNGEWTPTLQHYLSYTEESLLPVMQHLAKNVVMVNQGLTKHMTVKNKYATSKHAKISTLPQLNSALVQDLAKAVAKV
# Sequence of CDK4/CyclinD1 (P11802 whole entry): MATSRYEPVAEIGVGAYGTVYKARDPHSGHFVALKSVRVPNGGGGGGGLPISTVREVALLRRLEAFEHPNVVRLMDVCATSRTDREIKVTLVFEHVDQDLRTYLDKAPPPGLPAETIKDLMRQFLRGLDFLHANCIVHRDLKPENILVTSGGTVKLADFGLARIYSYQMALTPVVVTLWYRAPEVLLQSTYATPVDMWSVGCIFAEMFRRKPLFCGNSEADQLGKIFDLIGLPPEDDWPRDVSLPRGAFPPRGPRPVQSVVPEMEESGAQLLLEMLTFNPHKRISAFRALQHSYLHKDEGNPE
# Sequence of CDK4/CyclinD1 (P24385 whole entry partner): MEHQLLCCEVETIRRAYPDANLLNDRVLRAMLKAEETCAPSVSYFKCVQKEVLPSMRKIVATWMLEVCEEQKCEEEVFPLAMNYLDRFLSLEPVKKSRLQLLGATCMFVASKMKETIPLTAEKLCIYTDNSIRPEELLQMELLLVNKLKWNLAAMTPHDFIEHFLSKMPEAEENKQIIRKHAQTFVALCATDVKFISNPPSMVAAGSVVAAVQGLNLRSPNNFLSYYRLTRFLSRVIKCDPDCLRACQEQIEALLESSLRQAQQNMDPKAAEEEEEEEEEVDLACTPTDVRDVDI
smiles,measurement,setting,value
CN(C)C(=O)c1cc2cnc(Nc3ccc(N4CCN(C(=O)OC(C)(C)C)CC4)cn3)nc2n1N1CCCCC1 [Example 12],IC50,[1],< 100 nM
same,IC50,[2],> 2000 nM
CN(C)C(=O)c1cc2cnc(Nc3ccc(N4CCNCC4)cn3)nc2n1N1CCCCC1 [Example 13],IC50,[1],< 100 nM
same,IC50,[2],500 to 2000 nM
"CN1CCN(c2ccc(Nc3ncc4cc(C(=O)N(C)C)n(N5CCCCC5)c4n3)nc2)CC1 [Example 14, N,N-dimethyl-2-((5-(4-methylpiperazin-1-yl)pyridin-2-yl)amino)-7-(piperidin-1-yl)-7H-pyrrolo[2,3-d]pyrimidine-6-carboxamide]",IC50,[3],> 500 nM
same,IC50,[1],< 100 nM
same,IC50,[2],500 to 2000 nM
"CN(C)C(=O)c1cc2cnc(Nc3ccc(N4CCNCC4)cn3)nc2n1N1CCCCCC1 [Example 15, 7-(hexamethyleneimin-1-yl)N,N-dimethyl-2-((5-(piperazin-1-yl)pyridin-2-yl)amino)-7H-pyrrolo[2,3-d]pyrimidine-6-carboxamide]",IC50,[3],> 500 nM
same,IC50,[1],< 100 nM
same,IC50,[2],> 2000 nM
"CN1CCN(c2ccc(Nc3ncc4cc(C(=O)N5CCC5)n(N5CCCCC5)c4n3)nc2)CC1 [Example 16, Azetidin-1-yl-(2-((5-(4-methylpiperazin-1-yl)pyridin-2-yl)amino)-7-(piperidin-1-yl)-7H-pyrrolo[2,3-d]pyrimidin-6-yl)methanone]",IC50,[3],> 500 nM
same,IC50,[1],< 100 nM
same,IC50,[2],500 to 2000 nM
"O=C(c1cc2cnc(Nc3ccc(N4CCNCC4)cn3)nc2n1N1CCCCC1)N1CCC1 [Example 17, Azetidin-1-yl-(2-((5-(piperazin-1-yl)pyridin-2-yl)amino)-7-(piperidin-1-yl)-7H-pyrrolo[2,3-d]pyrimidin-6-yl)methanone]",IC50,[3],> 500 nM
same,IC50,[1],< 100 nM
same,IC50,[2],> 2000 nM
"CNC(=O)c1cc2cnc(Nc3ccc(N4CCNCC4)cn3)nc2n1N1CCCCC1 [Example 18, N-methyl-2-((5-(piperazin-1-yl)pyridin-2-yl)amino)-7-(piperidin-1-yl)-7H-pyrrolo[2,3-d] pyrimidine-6-carboxamide]",IC50,[3],> 500 nM
same,IC50,[1],< 100 nM
same,IC50,[2],500 to 2000 nM
"CN(C)C(=O)c1cc2cnc(Nc3ccc(N4CCN(C(=O)OC(C)(C)C)CC4)cn3)nc2n1N1CCCC1 [Example 19, Tert-butyl 4-(6-((6-(dimethylcarbamoyl)-7-(pyrrolidin-1-yl)-7H-pyrrolo[2,3-d]pyrimidin-2-yl)amino)pyridin-3-yl)piperazine-1-carboxylate]",IC50,[1],< 100 nM
same,IC50,[2],> 2000 nM
"CN(C)C(=O)c1cc2cnc(Nc3ccc(N4CCNC(C)(C)C4)cn3)nc2n1N1CCCCC1 [Example 20, 2-((5-(3,3-dimethylpiperazin-1-yl)pyridin-2-yl)amino)-N,N-dimethyl-7-(piperidin-1-yl)-7H-pyrrolo[2,3-d]pyrimidine-6-carboxamide]",IC50,[3],> 500 nM
same,IC50,[1],< 100 nM
same,IC50,[2],500 to 2000 nM
"CN1CCN(c2ccc(Nc3ncc4cc(C(=O)N5CCCC5)n(N5CCCCC5)c4n3)nc2)CC1 [Example 21, (2-((5-(4-methylpiperazin-1-yl)pyridin-2-yl)amino)-7-(piperidin-1-yl)-7H-pyrrolo[2,3-d]pyrimidin-6-yl)-pyrrolidin-1-ylmethanone]",IC50,[3],> 500 nM
same,IC50,[1],< 100 nM
same,IC50,[2],> 2000 nM
"CN1CCN(c2ccc(Nc3ncc4cc(C(=O)N(C)C)n(N5CCOCC5)c4n3)nc2)CC1 [Example 22, N,N-dimethyl-2-((5-(4-methylpiperazin-1-yl)pyridin-2-yl)amino)-7-morpholino-7H-pyrrolo[2,3-d]pyrimidine-6-carboxamide]",IC50,[1],100 to 500 nM
"O=C(c1cc2cnc(Nc3ccc(N4CCNCC4)cn3)nc2n1N1CCCCC1)N1CCCC1 [Example 23, (2-((5-(piperazin-1-yl)pyridin-2-yl)amino)-7-(piperidin-1-yl)-7H-pyrrolo[2,3-d]pyrimidin-6-yl)-pyrrolidin-1-ylmethanone]",IC50,[3],> 500 nM
same,IC50,[1],< 100 nM
same,IC50,[2],> 2000 nM
"CN(C)C(=O)c1cc2cnc(Nc3ccc(N4CCNCC4)cn3)nc2n1N1CCCC1 [Example 24, N,N-dimethyl-2-((5-(piperazin-1-yl)pyridin-2-yl)amino)-7-(pyrrolidin-1-yl)-7H-pyrrolo[2,3-d]pyrimidine-6-carboxamide]",IC50,[3],> 500 nM
same,IC50,[1],< 100 nM
same,IC50,[2],> 2000 nM
"CN(C)C(=O)c1cc2cnc(Nc3ccc(N4CCOCC4)cn3)nc2n1N1CCCCC1 [Example 25, N,N-dimethyl-2-((5-morpholinopyridin-2-yl)amino)-7-(piperidin-1-yl)-7H-pyrrolo[2,3-d]pyrimidine-6-carboxamide]",IC50,[3],> 500 nM
same,IC50,[1],< 100 nM
same,IC50,[2],> 2000 nM
"CCN1CCN(c2ccc(Nc3ncc4cc(C(=O)N(C)C)n(N5CCCCC5)c4n3)nc2)CC1 [Example 26, N,N-dimethyl-2-((5-(4-ethylpiperazin-1-yl)pyridin-2-yl)amino)-7-(piperidin-1-yl)-7H-pyrrolo[2,3-d]pyrimidine-6-carboxamide]",IC50,[3],> 500 nM
same,IC50,[1],< 100 nM
same,IC50,[2],500 to 2000 nM
"C[C@@H]1CN(c2ccc(Nc3ncc4cc(C(=O)N(C)C)n(N5CCCCC5)c4n3)nc2)C[C@H](C)N1 [Example 27, 2-((5-((3S,5R)-3,5-dimethylpiperazin-1-yl)pyridin-2-yl)amino)-N,N-dimethyl-7-(piperidin-1-yl)-7H-pyrrolo[2,3-d]pyrimidine-6-carboxamide]",IC50,[3],> 500 nM
same,IC50,[1],< 100 nM
same,IC50,[2],500 to 2000 nM
"CN(C)C(=O)c1cc2cnc(Nc3ccc(N4CCNCC4)cn3)nc2n1N1CCOCC1 [Example 28, N,N-dimethyl-2-((5-(piperazin-1-yl)pyridin-2-yl)amino)-7-morpholino-7H-pyrrolo[2,3-d]pyrimidine-6-carboxamide]",IC50,[1],100 to 500 nM
"CCN(CC)C(=O)c1cc2cnc(Nc3ccc(N4CCNCC4)cn3)nc2n1N1CCCCC1 [Example 29, N,N-diethyl-2-((5-(piperazin-1-yl)pyridin-2-yl)amino)-7-(piperidin-1-yl)-7H-pyrrolo[2,3-d]pyrimidine-6-carboxamide]",IC50,[3],> 500 nM
same,IC50,[1],< 100 nM
same,IC50,[2],> 2000 nM
